Results as given in patent publication US12410171B2, “Tropomyosin receptor kinase (TRK) degradation compounds and methods of use” (Cullgen (Shanghai), Inc., priority 2020, dated 2025).
Read-outs that look alike come from different tables or passages of the source.

Legend:
KM12 cells = experiment: KM12 cell viability (CellTiter-Glo); format: cell-based; settings: Homo sapiens, 72 h, KM12 cell viability, CellTiter-Glo, read-out: IC50
Summary of the method: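 KM12 cells seeded at 5000 per well in RPMI 1640 + 10% FBS and exposed 3 days to serial dilutions (11-point 3-fold, 8-point 3-fold from 1000 nM, or 12-point 2-fold). Viability by CellTiter-Glo; IC50 from least-squares nonlinear regression.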

TPM3-TRKA fusion protein = target: T1, TPM3-TRKA fusion protein (Homo sapiens, UniProt P04629); experiment: TPM3-TRKA fusion protein levels in KM12 cells (Western blot); format: cell-based; settings: 16 h, read-out: Degradation (at 10 nM)
T1 construct: The resulted chimeric proteins always retain the kinase domain of TRK proteins; TPM3 (fusion partner, N-terminal part of tropomyosin alpha-3, P06753); endogenous in cells; host or cells: KM12 colon cancer cells; the other entry of the earlier key: TPM3 (P06753, Tropomyosin alpha-3 chain)
T1 sequence (P04629 with tags, fused parts or gaps): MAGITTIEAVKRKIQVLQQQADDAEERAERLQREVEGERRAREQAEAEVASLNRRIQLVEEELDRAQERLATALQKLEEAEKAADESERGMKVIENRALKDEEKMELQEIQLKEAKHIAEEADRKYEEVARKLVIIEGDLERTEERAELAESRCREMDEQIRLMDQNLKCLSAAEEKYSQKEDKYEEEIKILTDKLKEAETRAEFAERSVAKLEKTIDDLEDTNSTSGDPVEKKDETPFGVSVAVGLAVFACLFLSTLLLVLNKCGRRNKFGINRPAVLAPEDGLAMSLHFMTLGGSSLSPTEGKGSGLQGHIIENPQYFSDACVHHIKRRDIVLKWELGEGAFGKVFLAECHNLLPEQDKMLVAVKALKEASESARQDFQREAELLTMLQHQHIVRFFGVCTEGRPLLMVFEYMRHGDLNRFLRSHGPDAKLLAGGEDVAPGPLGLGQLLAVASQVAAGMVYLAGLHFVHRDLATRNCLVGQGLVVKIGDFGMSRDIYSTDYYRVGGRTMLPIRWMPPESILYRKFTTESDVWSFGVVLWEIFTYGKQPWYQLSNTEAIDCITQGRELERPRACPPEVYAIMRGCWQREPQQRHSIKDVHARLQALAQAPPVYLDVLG
Summary of the method: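 KM12 colon cancer cells were treated with DMSO or compounds at 0.1–100 nM, 0.4–30 nM or other stated concentrations for 4, 8–16 or 16 h. RIPA lysates were BCA-normalized and resolved by SDS-PAGE. TPM3-TRKA was detected by chemiluminescent Western blot, with bands quantified by densitometry.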

[1] = 11-point 3-fold serial dilution, 3 days
[2] = TPM3-TRKA degradation in KM12 cells at 10 nM
[3] = TPM3-TRKA degradation in KM12 cells at 10 nM compound, category of percentage degradation

Compound	IC50 (KM12 cells; [1]) [nM]	percent degradation of TPM3-TRKA protein at 0.01 µM (TPM3-TRKA fusion protein; [2]) [%]	IC50 (KM12 cells; three days treatment) [nM]	percent degradation of TPM3-TRKA protein at 0.01 µM (TPM3-TRKA fusion protein; [3]) [%]
COc1ccc(COc2ccc(Cn3c(N)nc4cc(-c5cnn(CC(=O)NCCCCCCNc6cccc7c6C(=O)N(C6CCC(=O)NC6=O)C7=O)c5)cnc43)cc2OC)cc1 (centres unmarked) [CPD-500, 2-(4-(2-amino-3-(3-methoxy-4-((4-methoxybenzyl)oxy)benzyl)-3H-imidazo[4,5-b]pyridin-6-yl)-1H-pyrazol-1-yl)-N-(6-((2-(2,6-dioxopiperidin-3-yl)-1,3-dioxoisoindolin-4-yl)amino)hexyl)acetamide]	13.2	> 80		
COc1ccc(COc2ccc(Cn3c(N)nc4cc(-c5cnn(CC(=O)NCCCCCCCCNc6cccc7c6C(=O)N(C6CCC(=O)NC6=O)C7=O)c5)cnc43)cc2OC)cc1 (centres unmarked) [CPD-501, 2-(4-(2-amino-3-(3-methoxy-4-((4-methoxybenzyl)oxy)benzyl)-3H-imidazo[4,5-b]pyridin-6-yl)-1H-pyrazol-1-yl)-N-(8-((2-(2,6-dioxopiperidin-3-yl)-1,3-dioxoisoindolin-4-yl)amino)octyl)acetamide]	13.2	> 80		
COc1ccc(COc2ccc(Cn3c(N)nc4cc(-c5cnn(CC(=O)NCCCCCCCC(=O)N[C@H](C(=O)N6C[C@H](O)C[C@H]6C(=O)NCc6ccc(-c7scnc7C)cc6)C(C)(C)C)c5)cnc43)cc2OC)cc1 [CPD-510, (2S,4R)-1-((S)-2-(8-(2-(4-(2-amino-3-(3-methoxy-4-((4-methoxybenzyl)oxy)benzyl)-3H-imidazo[4,5-b]pyridin-6-yl)-1H-pyrazol-1-yl)acetamido)octanamido)-3,3-dimethylbutanoyl)-4-hydroxy-N-(4-(4-methylthiazol-5-yl)benzyl)pyrrolidine-2-carboxamide]	58.8	< 50		
COc1ccc(COc2ccc(Cn3c(N)nc4cc(-c5cnn(CC(=O)NCCCCCCCCCC(=O)N[C@H](C(=O)N6C[C@H](O)C[C@H]6C(=O)NCc6ccc(-c7scnc7C)cc6)C(C)(C)C)c5)cnc43)cc2OC)cc1 [CPD-511, (2S,4R)-1-((S)-2-(10-(2-(4-(2-amino-3-(3-methoxy-4-((4-methoxybenzyl)oxy)benzyl)-3H-imidazo[4,5-b]505yridine-6-yl)-1H-pyrazol-1-yl)acetamido)decanamido)-3,3-dimethylbutanoyl)-4-hydroxy-N-(4-(4-methylthiazol-5-yl)benzyl)pyrrolidine-2-carboxamide]	85.8	< 50		
O=C(CN1CCN(c2cccc(-c3cnc4ccc(N5CCC[C@@H]5c5cccc(F)c5)nn34)n2)CC1)NCCOCCNc1cccc2c1C(=O)N(C1CCC(=O)NC1=O)C2=O (stereo partly drawn) [TR-106, N-(2-(2-((2-(2,6-dioxopiperidin-3-yl)-1,3-dioxoisoindolin-4-yl)amino)ethoxy)ethyl)-2-(4-(6-(6-((R)-2-(3-fluorophenyl)pyrrolidin-1-yl)imidazo[1,2-b]pyridazin-3-yl)pyridin-2-yl)piperazin-1-yl)acetamide]			3.8	50 to 80
O=C1CCC(N2C(=O)c3ccc(NCCCCC(=O)N4CCN(c5cccc(-c6cnc7ccc(N8CCC[C@@H]8c8cccc(F)c8)nn67)n5)CC4)cc3C2=O)C(=O)N1 (stereo partly drawn) [TR-115, 2-(2,6-Dioxopiperidin-3-yl)-5-((5-(4-(6-(6-((R)-2-(3-fluorophenyl)pyrrolidin-1-yl)imidazo[1,2-b]pyridazin-3-yl)pyridin-2-yl)piperazin-1-yl)-5-oxopentyl)amino) isoindoline-1,3-dione]			0.9	> 80
O=C(CN1CCN(c2cccc(-c3cnc4ccc(N5CCC[C@@H]5c5cccc(F)c5)nn34)n2)CC1)NCCNc1ccc2c(c1)C(=O)N(C1CCC(=O)NC1=O)C2=O (stereo partly drawn) [TR-130, N-(2-((2-(2,6-dioxopiperidin-3-yl)-1,3-dioxoisoindolin-5-yl]amino)ethyl)-2-(4˜ (6˜ (6-((R)-2-(3-fluorophenyl)pyrrolidin-1-yl)imidazo[1,2-b]pyridazin-3-yl)pyridin-2-yl)piperazin-1-yl)acetamide]			0.9	> 80
O=C(CN1CCN(c2cccc(-c3cnc4ccc(N5CCC[C@@H]5c5cccc(F)c5)nn34)n2)CC1)NCCOCCNc1ccc2c(c1)C(=O)N(C1CCC(=O)NC1=O)C2=O (stereo partly drawn) [TR-135, N-(2-(2-((2-(2,6-dioxopiperidin-3-yl)-1,3-dioxoisoindolin-5-yl)amino)ethoxy)ethyl)-2-(4-(6-(6-((R)-2-(3-fluorophenyl)pyrrolidin-1-yl)imidazo[1,2-b]pyridazin-3-yl)pyridin-2-yl)piperazin-1-yl)acetamide]			0.9	> 80
O=C1CCC(N2C(=O)c3ccc(NCCOCCOCCOCCOCCC(=O)N4CCN(c5ccc(C(=O)Nc6n[nH]c7ccc(Cc8cc(F)cc(F)c8)cc67)c(NC6CCOCC6)c5)CC4)cc3C2=O)C(=O)N1 (centres unmarked) [TR-140, N-(5-(3,5-Difluorobenzyl)-1H-indazol-3-yl)-4-(4-(1-((2-(2,6-dioxopiperidin-3-yl)-1,3-dioxoisoindolin-5-yl)amino)-3,6,9,12-tetraoxapentadecan-15-oyl)piperazin-1-yl)-2˜ ((tetrahydro-2H-pyran-4-yl)amino)benzamide]			1.6	> 80
O=C1CCC(N2Cc3cc(NCC(=O)N4CCN(c5cccc(-c6cnc7ccc(N8CCC[C@@H]8c8cccc(F)c8)nn67)n5)CC4)ccc3C2=O)C(=O)N1 (stereo partly drawn) [TR-190, 3-(5-((2-(4-(6-(6-((R)-2-(3-fluorophenyl)pyrrolidin-1-yl)imidazo[1,2-b]pyridazin-3-yl)pyridin-2-yl)piperazin-1-yl)-2-oxoethyl)amino)-1-oxoisoindolin-2-yl)piperidine-2,6-dione]			8.7	> 80
O=C1CCC(N2C(=O)c3ccc(CCC(=O)N4CCN(c5cccc(-c6cnc7ccc(N8CCC[C@@H]8c8cccc(F)c8)nn67)n5)CC4)cc3C2=O)C(=O)N1 (stereo partly drawn) [TR-194, 2-(2,6-Dioxopiperidin-3-yl)-5-(3-(4-(6-(6-((R)-2-(3-fluorophenyl)pyrrolidin-1-yl)imidazo[1,2-b]pyridazin-3-yl)pyridin-2-yl)piperazin-1-yl)-3-oxopropyl)isoindoline-1,3-dione]			7.4	50 to 80
O=C1CCC(N2C(=O)c3ccc(N4CC(C(=O)N5CCN(c6cccc(-c7cnc8ccc(N9CCC[C@@H]9c9cccc(F)c9)nn78)n6)CC5)C4)cc3C2=O)C(=O)N1 (stereo partly drawn) [TR-211, 2-(2,6-dioxopiperidin-3-yl)-5-(3-(4-(6-(6-((R)-2-(3-fluorophenyl)pyrrolidin-1-yl)imidazo[1,2-b]pyridazin-3-yl)pyridin-2-yl)piperazine-1-carbonyl)azetidin-1-yl)isoindoline-1,3-dione]			2	> 80
Cn1c(=O)n(C2CCC(=O)NC2=O)c2ccc(NCCCN3CCN(c4cccc(-c5cnc6ccc(N7CCC[C@@H]7c7cccc(F)c7)nn56)n4)CC3)cc21 (stereo partly drawn) [TR-221, 3-[5-[3-[4-[6-[6-[(2R)-2-(3-fluorophenyl)pyrrolidin-1-yl]imidazo[1,2-b]pyridazin-3-yl]-2-pyridyl]piperazin-1-yl]propylamino]-3-methyl-2-oxo-benzimidazol-1-yl]piperidine-2,6-dione]			7.8	> 80
